By solubility is commonly meant the dissolved amount per volume that the medium holds. A high value points to much dissolved substance. One may read the Papp as a coefficient for how fast a substance crosses the barrier. A low value points to slow passage.

In brackets after ≈: the same amount, converted by molar mass.

A short description of one series: Solubility in water. It is filed as physicochemical. The conditions noted are these: pH=6.5. The procedure: (§1) These compounds are molecules that are very sparingly soluble in water, respectively: 0.1 μg/ml and 1 μg/l at pH=6.5. Furthermore, these compounds have high membrane permeability coefficients: respectively, 78×10^−7 cm/s and 96×10^−7 cm/s on the CaCO2 cell model, as described by M. C. Gres et al. in Pharmaceutical Research, […], 15(5), 726-7333.

Series [1] can be described thus: Membrane permeability coefficient on the CaCO2 cell model. The conditions noted are these: human, Caco-2. It is filed as in vitro ADME. How it is done:
as §1
Background: Caco-2 cells form a polarised layer with tight junctions and transporters.

In “Solubility in water”, `CCc1c(C(=O)NN2CCCCC2)nn(-c2ccc(Cl)cc2Cl)c1-c1ccc(Br)cc1` [Compound A, N-Piperidino-5-(4-bromophenyl)-1-(2,4-dichlorophenyl)-4-ethylpyrazole-3-carboxamide] gave a solubility of 0.1 µg/mL (≈ 0.191 µM). This compound yielded a Papp in series [1] of 7.8 ×10⁻⁶ cm/s. With `Cc1c(C(=O)NN2CCCCC2)nn(-c2ccc(Cl)cc2Cl)c1-c1ccc(Cl)cc1` [Compound B, N-Piperidino-5-(4-chlorophenyl)-1-(2,4-dichlorophenyl)-4-methylpyrazole-3-carboxamide, reference compound], in series [1], the Papp amounted to 9.6 ×10⁻⁶ cm/s.

The values above are taken from patent US20090004261A1, “PHARMACEUTICAL COMPOSITION FOR ORAL ADMINISTRATION OF A PYRAZOLE-3-CARBOXAMIDE DERIVATIVE” (Sanofi-aventis, priority 2003, published 2009).
